Patent US20080000489A1, “Method and preparation for binding aldehydes in saliva” (BIOHIT OYJ, priority 2000, published 2008)

Assay: Salivary acetaldehyde in smokers sucking blinded L-cysteine tablets during cigarette smoking, gas chromatography
Type: in vivo, human
Details: for mean salivary acetaldehyde concentration immediately after smoking: five smokers, placebo 191.2±48.5 μM
Description: Five smokers (age 29±2.8) participated in the study, in which […] were smoked (wash-out periods between). During every cigarette smoking (in 5 min time) volunteers sucked blinded tablets containing placebo, 1.25 mg, 2.5 mg, 5 mg, 10 mg or 20 mg L-cysteine. Acetaldehyde was analysed from salivary samples gas chromatographically at 0, 5, 10, 20 min from the beginning of smoking.
The mean salivary acetaldehyde concentrations immediately after smoking were 191.2±48.5 μM, 0 μM, 0 μM, 0 μM with placebo, 5 mg, 10 mg and 20 mg L-cysteine tablets, respectively.

## N[C@@H](CS)C(=O)O [L-cysteine]
1.25 mg L-cysteine tablet
  amount of acetaldehyde compared to placebo: about to third compared to placebo
5 mg L-cysteine tablet sucked during 5 min smoking
  mean salivary acetaldehyde concentration immediately after smoking: 0 µM
5 mg of L-cysteine administered by melting-tablet
  carcinogenic acetaldehyde in the saliva during smoking: totally inactivates
10 mg L-cysteine tablet sucked during 5 min smoking
  mean salivary acetaldehyde concentration immediately after smoking: 0 µM
20 mg L-cysteine tablet sucked during 5 min smoking
  mean salivary acetaldehyde concentration immediately after smoking: 0 µM
L-cysteine tablets 5 mg, 10 and 20 mg, FIG. 4
  tobacco-originated acetaldehyde from the saliva: totally eradicated
